US20230381142A1, “ANTILEISHMANIAL COMPOUNDS, COMPOSITIONS AND USE THEREOF” (TRUSTEES OF BOSTON UNIVERSITY, priority 2022, published 2023)

Columns and labels:
[1] = GSK inMac assay, host cell toxicity readout (LD MAC); format: cell-based, human; settings: human; footnote c; read-out: THP-1 Host Cell CC50
Method in brief: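 MAC EC50 reflects THP-1 host cell counts, measured within GSK's inMac L. donovani infection assay that also scores intracellular amastigotes and infected-cell percentage.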

[2] = system: L. donovani intracellular amastigotes in B10R cells; experiment: UCSD L. donovani infection assay (Assay Conditions D); format: cell-based; settings: B10R cells
Procedure: (§1) Assay Conditions D: B10R cells (CVCL_0155) were seeded at 300 cells/well, and L. donovani WT promastigotes in stationary phase (7th day after passage) were added at 6,000 parasites/well (ratio of 20 parasites/cell). Both cells and parasites were seeded in DMEM High-Glucose medium (Gibco, cat. no. 11995065) containing 5% Fetal Bovine Serum (Sigma-Aldrich, cat. no. F2442) and 1% Penicillin-Streptomycin (Gibco, cat. no. 15140122). Cells and parasites were incubated in the presence of the compounds for 72 h at 37° C. and 5% C02. Plates were then fixed with 4% formaldehyde solution for at least 1 h, then washed with 1×PBS and stained with 5 μg/mL DAPI. Plates were read using an ImageXpress microscope (Molecular Devices) and analyzed by MetaXpress software (Molecular Devices) using a custom module optimized for this assay. […] Compounds were tested in a 10-point 2-fold serial dilution in 3 technical replicates, and 2 biological replicates. After 72 h, plates were fixed and stained with DAPI as described above. Images were acquired on an ImageXpress microscope, and analyzed using the MetaXpress custom module.
as §1, with “Compounds were obtained as 0.2 μmoles of dried film for primary single point screening. Each compound was diluted in DMSO to 10 μM final testing concentration. These compounds were tested in 2 biological replicates. The compounds were pre-spotted onto 384-well assay plates in single concentration.” for “Assay Conditions D:”, “CO2.” for “C02.”, “module. The DRCs were plotted, half-effective concentration (EC50) and half-cytotoxic concentration (CC50) were calculated using GraphPad Prism Software, version 6.05 (GraphPad Software, San Diego, CA).” for “module.”

[3] = system: L. donovani intracellular amastigotes infecting THP-1 macrophages; experiment: GSK intramacrophage L. donovani assay (LD AMMAC, inMac; Assay Conditions C); format: cell-based; settings: Leishmania donovani; THP-1 cells; values marked c; read-out: L. donovani amastigotes EC50 (THP-1 cells)
Method in brief: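 EC50 values come from counting amastigotes per infected THP-1 macrophage (AMMAC). Parallel read-outs give percentage of infected cells per well (INFCELL) and a macrophage-number toxicity EC50 (MAC).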

| SMILES | CC50 [1] [µM] | L. donovani amastigotes EC75 (B10R cells) ([2]; footnote d) [µM] | EC50 ([2]; Leishmania donovani, values marked d, read-out: L. donovani amastigotes EC50 (B10R cells)) [µM] | EC50 [3] [µM] |
| --- | --- | --- | --- | --- |
| CC(C)Cc1n[nH]c2c1C(c1ccccc1Cl)N(c1ccc3ncnn3c1)C2=O (centres unmarked) [CMLD010921] | > 20 | 0.6 | 0.6 | – |
| CC(C)Cc1n[nH]c2c1C(c1ccccc1Br)N(c1ccc(F)cc1)C2=O (centres unmarked) [CMLD011111] | 15.8 | – | – | 4 |
| COc1ccccc1N1C(=O)c2[nH]nc(CC(C)C)c2C1c1ccccc1Br (centres unmarked) [CMLD011112] | 25.1 | – | – | 12.6 |
| CC(C)Cc1n[nH]c2c1C(c1ccc(F)cc1)N(c1ccc(F)cc1)C2=O (centres unmarked) [CMLD011113] | 25.1 | – | – | 6.3 |
| COc1ccc(N2C(=O)c3[nH]nc(CC(C)C)c3C2c2cccc(C(F)(F)F)c2)c(OC)c1 (centres unmarked) [CMLD011115] | 20 | – | – | 12.6 |
| COc1cc(N2C(=O)c3[nH]nc(CC(C)C)c3C2c2ccccc2Cl)cc(OC)c1OC (centres unmarked) [CMLD011116] | 6.3 | – | – | 5 |
| COCCN1C(=O)c2[nH]nc(CC(C)C)c2C1c1ccc(F)cc1 (centres unmarked) [CMLD011117] | > 50 | – | – | > 50 |
| CC(C)Cc1n[nH]c2c1C(c1cccc(C(F)(F)F)c1)N(c1ccc(F)cc1)C2=O (centres unmarked) [CMLD011119] | 25.1 | – | – | 2.5 |
| COc1ccc(N2C(=O)c3[nH]nc(CC(C)C)c3C2c2ccc(F)c(C)n2)cc1 (centres unmarked) [CMLD011120] | > 50 | – | – | 12.6 |
| COc1ccc(N2C(=O)c3[nH]nc(CC(C)C)c3C2c2ccc(C(F)(F)F)cc2)cc1 (centres unmarked) [CMLD011121] | 15.9 | – | – | 8 |
| CC(C)Cc1n[nH]c2c1C(c1cccc(C(F)(F)F)c1)N(c1ccc(C(C)(C)C)cc1)C2=O (centres unmarked) [CMLD011122] | 10 | – | – | 6.3 |
| CC(C)Cc1n[nH]c2c1[C@@H](c1ccc(F)cc1)N([C@H]1CC[C@H](N(C)C)CC1)C2=O [CMLD011124] | > 50 | – | – | 25.1 |
| COc1ccc(N2C(=O)c3[nH]nc(CC(C)C)c3C2c2ccccn2)cc1 (centres unmarked) [CMLD011125] | > 50 | – | – | 31.6 |
| CC(C)Cc1n[nH]c2c1C(c1cccc(C(F)(F)F)c1)N(CCN1CCCC1)C2=O (centres unmarked) [CMLD011126] | 39.8 | – | – | 20 |
| CC(C)Cc1n[nH]c2c1C(c1ccc(F)cc1)N(CC1CCN(C)C1)C2=O (centres unmarked) [CMLD011129] | > 50 | – | – | > 50 |
| COc1ccccc1N1C(=O)c2[nH]nc(CC(C)C)c2C1c1ccccc1Cl (centres unmarked) [CMLD011130] | 25.1 | – | – | 15.8 |
| CC(C)Cc1n[nH]c2c1C(c1cccc(Cl)c1)N(c1ccc(C(C)(C)C)cc1)C2=O (centres unmarked) [CMLD011131] | 15.8 | – | – | 2.5 |
| CC(C)Cc1n[nH]c2c1C(c1cccc(Cl)c1)N(c1ccc3c(c1)OCO3)C2=O (centres unmarked) [CMLD011132] | 20 | – | – | 5 |
| COc1cccc(N2C(=O)c3[nH]nc(CC(C)C)c3C2c2cccc(Cl)c2)c1 (centres unmarked) [CMLD011133] | 25.1 | – | – | 5 |
| COc1ccccc1N1C(=O)c2[nH]nc(CC(C)C)c2C1c1cccc(Cl)c1 (centres unmarked) [CMLD011134] | 15.8 | – | – | 7.9 |
| CC(C)Cc1n[nH]c2c1C(c1ccsc1)N(c1ccc(C(C)(C)C)cc1)C2=O (centres unmarked) [CMLD011135] | > 50 | – | – | 4 |
| COc1ccc(N2C(=O)c3[nH]nc(CC(C)C)c3C2c2ccsc2)cn1 (centres unmarked) [CMLD011137] | 25.1 | – | – | 10 |

| SMILES | CC50 [1] [µM] | L. donovani amastigotes EC75 (B10R cells) ([2]; footnote d) [µM] | EC50 ([2]; Leishmania donovani, values marked d, read-out: L. donovani amastigotes EC50 (B10R cells)) [µM] | EC50 [3] [µM] |
| --- | --- | --- | --- | --- |
| COc1ccccc1N1C(=O)c2[nH]nc(CC(C)C)c2C1c1ccsc1 (centres unmarked) [CMLD011138] | 15.8 | – | – | 7.9 |
| COc1cccc(N2C(=O)c3[nH]nc(CC(C)C)c3C2c2cccc(C(F)(F)F)c2)c1 (centres unmarked) [CMLD011140] | 20 | – | – | 5 |
| COc1ccccc1N1C(=O)c2[nH]nc(CC(C)C)c2C1c1cccc(C(F)(F)F)c1 (centres unmarked) [CMLD011141] | 20 | – | – | 7.9 |
| COc1ccc(N2C(=O)c3[nH]nc(CC(C)C)c3C2c2ccncc2)cc1 (centres unmarked) [CMLD011142] | > 50 | – | – | > 50 |
| CC(C)Cc1n[nH]c2c1C(c1ccc(F)cc1)N(c1ccc(S(N)(=O)=O)cc1)C2=O (centres unmarked) [CMLD011495] | 20 | – | – | > 100 |
| COc1ccc(N2C(=O)c3[nH]nc(CC(C)C)c3C2c2ccncc2Cl)cc1 (centres unmarked) [CMLD011496] | 20 | – | – | 10 |
| CC(C)Cc1n[nH]c2c1C(c1ccc(F)cc1)N(c1ccccc1N(C)C)C2=O (centres unmarked) [CMLD011499] | 10 | – | – | 3.2 |
| CC(C)Cc1n[nH]c2c1C(c1c(Cl)cccc1Cl)N(c1ccc3c(c1)OCO3)C2=O (centres unmarked) [CMLD011547] | 20 | – | – | 2.5 |
| CC(C)Cc1n[nH]c2c1C(c1c(Cl)cccc1Cl)N(c1ccc(Br)cc1)C2=O (centres unmarked) [CMLD011550] | 20 | – | – | 7.9 |
| CC(C)Cc1n[nH]c2c1C(c1ccc(F)cc1)N(c1ccc3[nH]c(O)nc3c1)C2=O (centres unmarked) [CMLD011556] | 20 | – | – | > 100 |
| CC(C)Cc1n[nH]c2c1C(c1ccc(F)cc1)N(c1ccc3[nH]cnc3c1)C2=O (centres unmarked) [CMLD011557] | 20 | – | – | > 100 |
| CC(C)Cc1n[nH]c2c1C(c1ccc(F)cc1)N(c1ccc(S(=O)(=O)N3CCCC3)cc1)C2=O (centres unmarked) [CMLD011558] | 20 | – | – | > 100 |
| COc1ccc(N2C(=O)c3[nH]nc(CC(C)C)c3C2c2cccnc2Cl)cc1 (centres unmarked) [CMLD011559] | 20 | – | – | > 100 |
| COc1ccc(N2C(=O)c3[nH]nc(CC(C)C)c3C2c2c(Cl)cccc2Cl)cc1F (centres unmarked) [CMLD011568] | 20 | – | – | 6.3 |
| COc1ccc(N2C(=O)c3[nH]nc(CC(C)C)c3C2c2c(Cl)cccc2Cl)cn1 (centres unmarked) [CMLD011569] | 20 | – | – | 5 |
| COc1ccc(N2C(=O)c3[nH]nc(CC(C)C)c3C2c2ccc(F)cc2OC)cc1F (centres unmarked) [CMLD011573] | 7.9 | – | – | 0.5 |
| COc1ccc(N2C(=O)c3[nH]nc(CC(C)C)c3C2c2ncccc2Cl)cc1 (centres unmarked) [CMLD011575] | 20 | – | – | 10 |
| COc1ccc(N2C(=O)c3[nH]nc(CC(C)C)c3C2c2cccnc2OC)cc1 (centres unmarked) [CMLD0011576] | 10 | – | – | 25.1 |
| COc1ccc(N2C(=O)c3[nH]nc(CC(C)C)c3C2c2cnccc2OC)cc1 (centres unmarked) [CMLD011577] | 20 | – | – | 10 |
| COc1ccc(N2C(=O)c3[nH]nc(CC(C)C)c3C2c2ncccc2OC)cc1 (centres unmarked) [CMLD011578] | 20 | – | – | > 100 |
| COc1ccc(N2C(=O)c3[nH]nc(CC(C)C)c3C2c2cnccc2Cl)cc1 (centres unmarked) [CMLD011579] | 20 | – | – | > 100 |
| COc1ccc(N2C(=O)c3[nH]nc(CC(C)C)c3C2c2ccc(F)c(F)c2)cc1 (centres unmarked) [CMLD013640] | 25.1 | – | – | 5 |
